Measurements as given in the supplement of paper PMC11451515.

System: SEM cells
Experiment: cell viability relative to DMSO control; higher = less cytotoxic
Conditions: 48 h
Summary of the method: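 NOMO1, SEM and P12-Ichikawa leukemia cells spent at least four passages adapting to each medium before use. They were seeded at 500 cells/well (NOMO1, SEM) or 1000 cells/well (P12-Ichikawa) in 5 μl in 1536-well plates and pin-dosed with library compounds in DMSO at 11 threefold steps from 47 μM down to 0.79 nM. After 48 h at 37°C, CellTiter-Glo One luminescence was read. Viability is reported as a percentage of the DMSO wells on each plate, with cell-free wells as background.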

[1] = HPLM + 10% dialyzed FBS, 0.000781 µM
[2] = HPLM + 10% dialyzed FBS, 0.00234 µM
[3] = HPLM + 10% dialyzed FBS, 0.00702 µM
[4] = HPLM + 10% dialyzed FBS, 0.0211 µM
[5] = HPLM + 10% dialyzed FBS, 0.0632 µM
[6] = HPLM + 10% dialyzed FBS, 0.19 µM
[7] = HPLM + 10% dialyzed FBS, 0.569 µM
[8] = HPLM + 10% dialyzed FBS, 1.71 µM
[9] = HPLM + 10% dialyzed FBS, 5.12 µM
[10] = HPLM + 10% dialyzed FBS, 15.4 µM
[11] = HPLM + 10% dialyzed FBS, 46.1 µM
[12] = RPMI 5 mM glucose + 10% FBS, 0.000781 µM
[13] = RPMI 5 mM glucose + 10% FBS, 0.00234 µM
[14] = RPMI 5 mM glucose + 10% FBS, 0.00702 µM
[15] = RPMI 5 mM glucose + 10% FBS, 0.0211 µM
[16] = RPMI 5 mM glucose + 10% FBS, 0.0632 µM
[17] = RPMI 5 mM glucose + 10% FBS, 0.19 µM
[18] = RPMI 5 mM glucose + 10% FBS, 0.569 µM
[19] = RPMI 5 mM glucose + 10% FBS, 1.71 µM
[20] = RPMI 5 mM glucose + 10% FBS, 5.12 µM
[21] = RPMI 5 mM glucose + 10% FBS, 15.4 µM
[22] = RPMI 5 mM glucose + 10% FBS, 46.1 µM
[23] = RPMI 5 mM glucose + 10% dialyzed FBS, 0.000781 µM
[24] = RPMI 5 mM glucose + 10% dialyzed FBS, 0.00234 µM
[25] = RPMI 5 mM glucose + 10% dialyzed FBS, 0.00702 µM
[26] = RPMI 5 mM glucose + 10% dialyzed FBS, 0.0211 µM
[27] = RPMI 5 mM glucose + 10% dialyzed FBS, 0.0632 µM
[28] = RPMI 5 mM glucose + 10% dialyzed FBS, 0.19 µM
[29] = RPMI 5 mM glucose + 10% dialyzed FBS, 0.569 µM
[30] = RPMI 5 mM glucose + 10% dialyzed FBS, 1.71 µM
[31] = RPMI 5 mM glucose + 10% dialyzed FBS, 5.12 µM
[32] = RPMI 5 mM glucose + 10% dialyzed FBS, 15.4 µM
[33] = RPMI 5 mM glucose + 10% dialyzed FBS, 46.1 µM

## COC(=O)Nc1ccc(-c2nc(N3CCOCC3)c3cnn(C4CCN(Cc5cccnc5)CC4)c3n2)cc1
[1]
  cell viability: 86.4%
[2]
  cell viability: 98%
[3]
  cell viability: 99%
[4]
  cell viability: 92.5%
[5]
  cell viability: 93.5%
[6]
  cell viability: 57.9%
[7]
  cell viability: 46.6%
[8]
  cell viability: 50.9%
[9]
  cell viability: 21.4%
[10]
  cell viability: 10.6%
[11]
  cell viability: 7.36%
[12]
  cell viability: 119%
[13]
  cell viability: 98%
[14]
  cell viability: 85.5%
[15]
  cell viability: 99.9%
[16]
  cell viability: 75.4%
[17]
  cell viability: 54.2%
[18]
  cell viability: 33.3%
[19]
  cell viability: 35.9%
[20]
  cell viability: 4.31%
[21]
  cell viability: 2.26%
[22]
  cell viability: 3.9%
[23]
  cell viability: 125%
[24]
  cell viability: 128%
[25]
  cell viability: 112%
[26]
  cell viability: 105%
[27]
  cell viability: 89.9%
[28]
  cell viability: 67.8%
[29]
  cell viability: 43.7%
[30]
  cell viability: 40.3%
[31]
  cell viability: 6.29%
[32]
  cell viability: 3.11%
[33]
  cell viability: 4.53%

## O=C(O)CCNc1cc(N2CCc3ccccc3CC2)nc(-c2ccccn2)n1
[1]
  cell viability: 123%
[2]
  cell viability: 120%
[3]
  cell viability: 130%
[4]
  cell viability: 127%
[5]
  cell viability: 139%
[6]
  cell viability: 144%
[7]
  cell viability: 129%
[8]
  cell viability: 133%
[9]
  cell viability: 121%
[10]
  cell viability: 129%
[11]
  cell viability: 139%
[12]
  cell viability: 105%
[13]
  cell viability: 124%
[14]
  cell viability: 123%
[15]
  cell viability: 118%
[16]
  cell viability: 121%
[17]
  cell viability: 103%
[18]
  cell viability: 103%
[19]
  cell viability: 95.9%
[20]
  cell viability: 99.2%
[21]
  cell viability: 115%
[22]
  cell viability: 76.9%
[23]
  cell viability: 112%
[24]
  cell viability: 116%
[25]
  cell viability: 127%
[26]
  cell viability: 110%
[27]
  cell viability: 116%
[28]
  cell viability: 120%
[29]
  cell viability: 130%
[30]
  cell viability: 112%
[31]
  cell viability: 101%
[32]
  cell viability: 120%
[33]
  cell viability: 99.6%

## CN(C)CC[C@H](CSc1ccccc1)Nc1ccc([S+](=O)([O-])NC(=O)c2ccc(N3CCN(Cc4ccccc4-c4ccc(Cl)cc4)CC3)cc2)cc1[N+](=O)[O-]
[1]
  cell viability: 116%
[2]
  cell viability: 126%
[3]
  cell viability: 111%
[4]
  cell viability: 82.7%
[5]
  cell viability: 64.8%
[6]
  cell viability: 23.7%
[7]
  cell viability: 10.8%
[8]
  cell viability: 8.48%
[9]
  cell viability: 6.85%
[10]
  cell viability: 6.25%
[11]
  cell viability: 3.88%
[12]
  cell viability: 103%
[13]
  cell viability: 118%
[14]
  cell viability: 110%
[15]
  cell viability: 102%
[16]
  cell viability: 73.8%
[17]
  cell viability: 27.7%
[18]
  cell viability: 11.1%
[19]
  cell viability: 6.52%
[20]
  cell viability: 4.95%
[21]
  cell viability: 3.98%
[22]
  cell viability: 2.62%
[23]
  cell viability: 128%
[24]
  cell viability: 91.3%
[25]
  cell viability: 99.7%
[26]
  cell viability: 81.7%
[27]
  cell viability: 57.4%
[28]
  cell viability: 19.7%
[29]
  cell viability: 11.3%
[30]
  cell viability: 8.96%
[31]
  cell viability: 5.67%
[32]
  cell viability: 4.98%
[33]
  cell viability: 3.36%

## COc1nccc(-c2c(-c3ccc(F)cc3)ncn2C2CCC(O)CC2)n1 (stereo unspecified)
[1]
  cell viability: 124%
[2]
  cell viability: 123%
[3]
  cell viability: 132%
[4]
  cell viability: 128%
[5]
  cell viability: 122%
[6]
  cell viability: 105%
[7]
  cell viability: 125%
[8]
  cell viability: 113%
[9]
  cell viability: 106%
[10]
  cell viability: 116%
[11]
  cell viability: 36.1%
[12]
  cell viability: 102%
[13]
  cell viability: 116%
[14]
  cell viability: 97.3%
[15]
  cell viability: 103%
[16]
  cell viability: 96.6%
[17]
  cell viability: 56.7%
[18]
  cell viability: 53.4%
[19]
  cell viability: 63.9%
[20]
  cell viability: 63.8%
[21]
  cell viability: 47.9%
[22]
  cell viability: 12.2%
[23]
  cell viability: 103%
[24]
  cell viability: 126%
[25]
  cell viability: 116%
[26]
  cell viability: 114%
[27]
  cell viability: 123%
[28]
  cell viability: 127%
[29]
  cell viability: 111%
[30]
  cell viability: 112%
[31]
  cell viability: 94.9%
[32]
  cell viability: 87.9%
[33]
  cell viability: 26.8%

## C=CCc1cc(OC)c(O)c(C(=O)NCCO)c1
[1]
  cell viability: 110%
[2]
  cell viability: 101%
[3]
  cell viability: 101%
[4]
  cell viability: 103%
[5]
  cell viability: 116%
[6]
  cell viability: 98.7%
[7]
  cell viability: 112%
[8]
  cell viability: 92%
[9]
  cell viability: 98.6%
[10]
  cell viability: 69.3%
[11]
  cell viability: 64.3%
[12]
  cell viability: 97.4%
[13]
  cell viability: 108%
[14]
  cell viability: 108%
[15]
  cell viability: 110%
[16]
  cell viability: 102%
[17]
  cell viability: 112%
[18]
  cell viability: 98.1%
[19]
  cell viability: 88%
[20]
  cell viability: 99.2%
[21]
  cell viability: 77.1%
[22]
  cell viability: 68.6%
[23]
  cell viability: 110%
[24]
  cell viability: 83.8%
[25]
  cell viability: 99.1%
[26]
  cell viability: 102%
[27]
  cell viability: 105%
[28]
  cell viability: 113%
[29]
  cell viability: 105%
[30]
  cell viability: 103%
[31]
  cell viability: 96.6%
[32]
  cell viability: 78.4%
[33]
  cell viability: 66.8%

## COc1ccc(C(=O)CC(=O)c2ccc(C(C)(C)C)cc2)cc1
[1]
  cell viability: 70.8%
[2]
  cell viability: 73.2%
[3]
  cell viability: 75.9%
[4]
  cell viability: 66.4%
[5]
  cell viability: 69.1%
[6]
  cell viability: 78.2%
[7]
  cell viability: 75.8%
[8]
  cell viability: 76.1%
[9]
  cell viability: 80.8%
[10]
  cell viability: 93.5%
[11]
  cell viability: 68.3%
[12]
  cell viability: 100%
[13]
  cell viability: 94.4%
[14]
  cell viability: 101%
[15]
  cell viability: 93%
[16]
  cell viability: 99%
[17]
  cell viability: 88%
[18]
  cell viability: 98.5%
[19]
  cell viability: 95.1%
[20]
  cell viability: 110%
[21]
  cell viability: 106%
[22]
  cell viability: 89.9%
[23]
  cell viability: 91.7%
[24]
  cell viability: 96.1%
[25]
  cell viability: 101%
[26]
  cell viability: 105%
[27]
  cell viability: 100%
[28]
  cell viability: 104%
[29]
  cell viability: 117%
[30]
  cell viability: 92%
[31]
  cell viability: 111%
[32]
  cell viability: 90.8%
[33]
  cell viability: 115%

## O=C(Nc1ccc([N+](=O)[O-])cc1Cl)c1cc(Cl)ccc1O
[1]
  cell viability: 84.5%
[2]
  cell viability: 98.7%
[3]
  cell viability: 93.1%
[4]
  cell viability: 98.2%
[5]
  cell viability: 99.7%
[6]
  cell viability: 97.6%
[7]
  cell viability: 104%
[8]
  cell viability: 43.3%
[9]
  cell viability: 24.2%
[10]
  cell viability: 64.1%
[11]
  cell viability: 33.9%
[12]
  cell viability: 75%
[13]
  cell viability: 89.7%
[14]
  cell viability: 96.8%
[15]
  cell viability: 101%
[16]
  cell viability: 101%
[17]
  cell viability: 105%
[18]
  cell viability: 117%
[19]
  cell viability: 22.1%
[20]
  cell viability: 19.7%
[21]
  cell viability: 3.97%
[22]
  cell viability: 32.3%
[23]
  cell viability: 96.9%
[24]
  cell viability: 85.7%
[25]
  cell viability: 88.8%
[26]
  cell viability: 103%
[27]
  cell viability: 96.7%
[28]
  cell viability: 99.2%
[29]
  cell viability: 123%
[30]
  cell viability: 19.6%
[31]
  cell viability: 17.1%
[32]
  cell viability: 66.3%
[33]
  cell viability: 47%
